This note sets out measurements from patent US20250268894A1, “MACROCYCLE COMPOUNDS FOR THE TREATMENT OF CANCER” (Hoffmann-La Roche Inc., priority 2022, published 2025).

SMILES strings stand for the structures.

In one series the target is KRAS G12C-BRAF complex (Homo sapiens (Human), UniProt P01116+P62937, G12C). As to the kind of experiment: KRAS-BRAF with CYPA (500 nM) interaction assay (TR-FRET), G12C. It is filed as biochemical. The method, then: (§1) Kras-BRAF with CYPA (500 nM) Interaction Assay In this example, TR-FRET was also used to measure the compound or compound-CYPA dependent disruption of the KRAS G12C-BRAF complex. This protocol was also used to measure disruption of KRAS G12D or KRAS G12V binding to BRAF by a compound of the invention, respectively. […] Compound was present in plate wells as a 16-point 3-fold dilution series starting at a final concentration of 10 μM and incubated for 3 hours. […] TR-FRET signal was read on a […] microplate reader (Ex320 nm, Em 665/615 nm). Compounds that facilitate disruption of the KRAS-BRAF complex were identified as those eliciting a decrease in the TR-FRET ratio relative to DMSO control wells.

A short description of series [1]: Single dose pharmacokinetics (PK) study in female BALB/c mice. It is filed as in vivo. The method, then: The purpose of this study was to determine the pharmacokinetics of selected compounds following single intravenous bolus or oral gavage administration in female BALB/c mice. Briefly, two groups of female BALB/c mice (available from Shanghai Lingchang Biotechnology Co., Ltd)(N=3/group) were treated with a single dose of compound intravenously at 3 mg/kg (IV) or orally at 30 mg/kg (PO). Blood samples were collected at 5 min (only for IV), […], 30 min, 1 h, 2 h, 4 h, 7 h and 24 h post-dose. Blood samples were placed on ice until centrifugation to obtain plasma samples. The concentration of compound in plasma samples was determined using LC-MS/MS method. The pharmacokinetic parameters were calculated by non-compartmental analysis.

Series [2] concerns phosphorylation of ERK, KRAS G12V in SW620 cells. Put plainly: pERK inhibition assay, KRAS G12V in SW620. It is filed as cell-based, human. The settings on record: Homo sapiens, SW-620, SW620, 4 hours. In outline:
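NCI-H358 (G12C), AGS (G12D) and SW620 (G12V) cells in RPMI-1640/10% FBS, plated overnight, then treated 4 h with compound (0.5% DMSO final). Fixed, methanol-permeabilized; phospho-ERK detected by in-cell ELISA (anti-pERK, HRP secondary, TMB, OD450). IC50 from 4-parameter sigmoidal fit.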

A further series concerns SW620 cells (KRAS G12V). As to the kind of experiment: Cell viability assay (Cell Counting Kit-8), KRAS G12V. Type of series: cell-based. The conditions noted are these: Homo sapiens, SW-620, SW620, 72 hrs. In outline: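 Cells seeded overnight at 5,000/well (NCI-H358) or 2,000/well (AGS, SW620), then exposed to compound for 72 hrs at 0.5% DMSO final. CCK-8 read as OD450 minus OD650 after 2 hrs; IC50 from 4-parameter sigmoidal fit.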
On the technique in general: Formazan colour is commonly taken as a measure of viable cells.

Series [3] relates to Miapaca-2 KRAS G12C + A59T cells. As to the kind of experiment: Stable KRAS mutant cell line viability assay (CellTiter-Glo), G12C + A59T. The settings on record: Homo sapiens, MIA PaCa-2, 72 h, Miapaca-2 mutant cells, 3 d. Type of series: cell-based. From the text: (§2) The aim of the study was to determine the potency and efficacy of compounds for cell proliferation using CellTiter-Glo® (CTG) Luminescent Cell Viability Assay (Promega Corp., Madison, WI). We cloned […] KRAS^G12C variant sequences with secondary mutations (V8A, V9Y, S17E, T58I, A59T, S65W, R68S, D69P, M72I, D92R, H95N, Y96D, Q99F, Q99W, Y96H, and F156L) into the Miapaca-2. Totally 14 stable Miapaca-2 mutant cell lines were established through lentivirus infection. For the cell viability assay, cells were dosed with compounds in a 9-point dose-response using a 4 fold dilution series at a top dose of 10 μM. KRAS mutant cells were maintained in DMEM+10% FBS+2.5% HI Horse serum+1% PS+1 μg/mL Puromycin and seeded into 96-well plates at 800-1,500 cells per well 24 h before compound addition and then incubated with compound for 3 d before assaying viability (CellTiter-Glo, Promega). Assays were performed in biological duplicates. Nonlinear regression curves were fitted using Xfit. IC50 (absolute IC50) is the dose at which the estimated viability is 50% relative to untreated wells.
(In general: In ATP-based viability assays light output follows the ATP content of the culture.)

Another series deals with KRAS G12V-BRAF complex (Homo sapiens (Human), UniProt P01116+P62937, G12V). As to the kind of experiment: KRAS-BRAF with CYPA (500 nM) interaction assay (TR-FRET), G12V. Type of series: biochemical. As for the experimental part: as §1
(TR-FRET usually uses a lanthanide donor and a delayed reading to cut background.)

The test system of series [4] is Miapaca-2 KRAS G12C + H95N cells. As to the kind of experiment: Stable KRAS mutant cell line viability assay (CellTiter-Glo), G12C + H95N. Type of series: cell-based. The settings on record: Homo sapiens, MIA PaCa-2, 72 h, Miapaca-2 mutant cells, 3 d.
From the text: as §2

[5] abbreviates: mouse, 30 mg/kg, po, female BALB/c mice, plasma.

Sequence of KRAS G12V-BRAF complex (P01116-2 other isoform, or with tags, fused parts or gaps G12V): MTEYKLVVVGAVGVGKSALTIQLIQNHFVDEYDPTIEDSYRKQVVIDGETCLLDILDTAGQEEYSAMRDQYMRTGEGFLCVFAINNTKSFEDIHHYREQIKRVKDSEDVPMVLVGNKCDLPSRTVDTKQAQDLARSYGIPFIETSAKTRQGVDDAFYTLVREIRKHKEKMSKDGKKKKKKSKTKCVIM
Sequence of KRAS G12V-BRAF complex (P62937 whole entry): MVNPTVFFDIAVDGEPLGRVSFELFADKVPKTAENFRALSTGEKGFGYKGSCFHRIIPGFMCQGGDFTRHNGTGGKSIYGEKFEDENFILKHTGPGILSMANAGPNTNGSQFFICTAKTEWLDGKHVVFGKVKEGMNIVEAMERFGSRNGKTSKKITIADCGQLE
Sequence of KRAS G12C-BRAF complex (P01116-2 other isoform, or with tags, fused parts or gaps G12C): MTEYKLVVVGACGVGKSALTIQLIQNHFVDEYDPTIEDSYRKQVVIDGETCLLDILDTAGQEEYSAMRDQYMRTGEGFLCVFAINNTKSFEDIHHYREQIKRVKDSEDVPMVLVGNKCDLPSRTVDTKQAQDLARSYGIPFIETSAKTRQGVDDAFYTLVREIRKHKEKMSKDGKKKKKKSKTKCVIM
Sequence of KRAS G12C-BRAF complex (P62937 whole entry): as the sequence (P62937 whole entry) above

Turning to `CO[C@@H](C)c1ncc(N2CCN(CC(F)(F)F)CC2)cc1-c1c2c3cc(ccc3n1CC(F)(F)F)-c1csc(n1)C[C@H](NC(=O)[C@H](C(C)C)N(C)C(=O)N1CCOCC1)C(=O)N1CCC[C@H](N1)C(=O)OCC(C)(C)C2` (atropisomer, axis not shown; (M)) [Example 6], the IC50 (in general, the point on the concentration scale where inhibition reaches its midpoint) at KRAS G12C-BRAF complex turned out to be 23 nM; in series [2] it was 2 nM; with SW620 cells (KRAS G12V) it was 2 nM; in series [3] it was 11 nM; at KRAS G12V-BRAF complex it was 61 nM; in series [4], 5 nM. For the same compound, the F in series [1] (30 mg/kg, po, female BALB/c mice) is on record as 29.7%. For the same compound, the “AUC0-last compared with compound A555” value in series [1] (30 mg/kg, po, mouse model) came out at 15 folds. The “Cmax compared with compound A555” value in series [1] (30 mg/kg, po, mouse model) is on record as about 7 folds. In addition, in series [1] (mouse, 3 mg/kg, iv, female BALB/c mice, plasma), the clearance (as a rule, the volume of plasma or blood freed of the substance per unit of time) was determined as 3.7 mL/min/kg. The AUC(0-t) – broadly, exposure summed from dosing to a finite time, without extrapolation to infinity – in series [1] (setting [5]) came to 36800 ng·h/mL. Further, the highest level in series [1] (setting [5]) (Cmax) was 4890 ng/mL.
